Test results as given in patent publication US6551831B2, “Dyes and methods of detection of nucleic acid in immature red blood cells” (Coulter International Corp., priority 2000, dated 2003).
Like-named read-outs stand apart in the source and are kept apart here.

Columns and labels:
Torula yeast RNA = assay: Fluorescence of dyes in PBS with and without free Torula yeast RNA, excitation 633 nm; assay type: binding; details: Table 4, Group-III dyes; for Fluorescence Intensity Unbound to RNA: conc. 2 μm in PBS, peak of emission spectrum; for Fluorescence Intensity Bound to RNA 1 mg/ml: conc. 2 μm
Experimental: To compare the relative fluorescence intensities of the dyes in bound and unbound states, fluorescence measurements were conducted in a spectrofluorometer by exciting each dye solution at 633 nm under appropriate conditions, recording the fluorescence spectrum of each sample, and measuring the intensities at the peak of these fluorescence spectra. […] A portion of the stock solution for the Dye-1 was diluted in PBS to obtain a dye concentration of […]. […] The fluorescence spectrum of this dye solution in presence of RNA was measured by illuminating the sample at 633 nm.

Calf thymus DNA = assay: Fluorescence of dyes in PBS with and without free calf thymus DNA, excitation 633 nm; assay type: binding; details: Table 5; for Fluorescence Intensity Unbound to DNA: Group-III dyes in PBS, peak of emission spectrum; for Fluorescence Intensity Bound to DNA 0.5 mg/ml: Group-III dyes
Experimental: To compare the relative fluorescence intensities of the dyes in bound and unbound states, fluorescence measurements were conducted in a spectrofluorometer by exciting each dye solution at 633 nm under appropriate conditions, recording the fluorescence spectrum of each sample, and measuring the intensities at the peak of these fluorescence spectra. […] Next, the fluorescence spectrum of the dye solution was measured by illuminating the sample at 633 nm.

reticulocytes [1] = assay: Rapid staining of reticulocytes in whole blood with dye in rapid staining composition, flow cytometry (HeNe 632.8 nm); assay type: cell-based; details: 5 μM dye, analyzed immediately
Experimental: Approximately 11.5 mW of 632.8 nm laser light from the above laser was incident on the beam shaping optics of the flow cytometer. Forward light scatter (FS), side scatter (SS) and one fluorescence (FL) parameter in the orthogonal direction were measured to analyze the red cells. The red cells were gated on a SS vs. FS dotplot. A fixed gate was then used to enumerate […] on a FL vs. FS dotplot. […] The […] reagent is a solution comprising about 20 μg/ml Dodecyl-β-D-maltoside and 0.05% Proclin 300 in PBS at about pH 7.4 and about 290 mOsm. […] The mixture was then aspirated into the XLTM flow cytometer containing the red HeNe laser for analysis. […] The mixture was then aspirated into the XLTM flow cytometer containing the red HeNe laser for analysis. […] The […] reagent is a solution comprising about 20 μg/ml Dodecyl-β-D-maltoside and 0.05% Proclin 300 in PBS at about pH 7.4 and about 290 mOsm. […] The […] reagent is a solution comprising about 20 μg/ml Dodecyl-β-D-maltoside and 0.05% Proclin 300 in PBS at about pH 7.4 and about 290 mOsm. […] The […] reagent is a solution comprising about 20 μg/ml Dodecyl-β-D-maltoside and 0.05% Proclin® 300 in PBS at about pH 7.4 and about 290 mOsm.

reticulocytes [2] = tested on: reticulocytes
calf liver RNA = assay: Fluorescence of dyes in PBS with and without free calf liver RNA (spectrofluorometer); assay type: binding; details: for Fluorescence enhancement ratio (Bound/Unbound): RNA-bound dye intensity / free dye intensity; for Fluorescence Intensity Unbound to RNA / Fluorescence Intensity Bound to RNA: Table 1, peak emission wavelength; for Fluorescence Intensity Unbound to RNA: dye 2 μM in PBS, no RNA; for Fluorescence Intensity Bound to RNA: dye 2 μM, calf liver RNA 8 mg/ml in PBS
Experimental: For fluorescence measurements, a stock solution of each compound in DMSO was made (as described in Example 1D). A portion of this stock solution was diluted in PBS to obtain a dye concentration of 2 μm. 1 ml of this dilute solution was placed in a glass cuvette and the fluorescence spectra obtained exciting the dye at its excitation wavelength maximum. Next, 1 ml of a solution of free calf liver RNA (Sigma) dissolved in PBS at a concentration of 8 mg/ml, and a measured volume of the dye stock solution was mixed to obtain a dye concentration of 2 μM in the RNA solution. This dye solution diluted in the RNA solution was placed in a glass cuvette and the fluorescence spectra measured using the same excitation as in the previous measurement.
These intensities were obtained at the peak emission wavelengths of each fluorescence spectra measured as described above. FIG. 1C compares the fluorescence intensities of the RNA-bound and unbound dyes in graphical form.

COc1cc(CN2C=C/C(=C\C=C\c3sc4ccccc4[n+]3CCO)c3ccccc32)cc(OC)c1 [Dye-3]
Fluorescence Intensity Unbound to RNA (Torula yeast RNA): 10 | Fluorescence Intensity Bound to RNA 1 mg/ml (Torula yeast RNA): 328 | Fluorescence Intensity Unbound to DNA (Calf thymus DNA): 15 | Fluorescence Intensity Bound to DNA 0.5 mg/ml (Calf thymus DNA): 400 | percentage of reticulocytes enumerated (reticulocytes [1]; Example 9 Run 7, normal donor): 2.3% | percentage of reticulocytes enumerated (reticulocytes [1]; Example 9 Run 8, abnormal donor (reference 12%)): approximately 14.6% | percentage of reticulocytes enumerated (reticulocytes [1]; Example 9 Run 9, another abnormal donor (reference 27%)): approximately 24%

OCC[n+]1c(/C=C/C=C2\C=CN(Cc3ccccc3)c3ccccc32)sc2ccccc21 [Dye-5]
Fluorescence Intensity Unbound to RNA (Torula yeast RNA): 10 | Fluorescence Intensity Bound to RNA 1 mg/ml (Torula yeast RNA): 420 | Fluorescence Intensity Unbound to DNA (Calf thymus DNA): 10 | Fluorescence Intensity Bound to DNA 0.5 mg/ml (Calf thymus DNA): 660

C[n+]1c(/C=C/C=C2\C=CN(Cc3ccccc3B(O)O)c3ccccc32)sc2ccccc21 [Dye-6]
Fluorescence Intensity Unbound to RNA (Torula yeast RNA): 6 | Fluorescence Intensity Bound to RNA 1 mg/ml (Torula yeast RNA): 410 | Fluorescence Intensity Unbound to DNA (Calf thymus DNA): 4 | Fluorescence Intensity Bound to DNA 0.5 mg/ml (Calf thymus DNA): 380

CCNc1cc2[s+]c3cc(NCC)c(C)cc3nc2cc1C.[Cl-] [New Methylene Blue]
retic percentage (reticulocytes [2]; Gen*S method, blood sample of Example 3): 6.7% | retic percentage (reticulocytes [2]; normal donor of Example 4 Run 3, commercially available clinical hematology analyzer): 0.95%

Cc1ccc2c(c1)sc(/C=C/C=C1\C=CN(C(C)C)c3ccccc31)[n+]2CCO [ReticRed5]
Fluorescence enhancement ratio (Bound/Unbound) (calf liver RNA): 292.884 | Fluorescence Intensity Unbound to RNA (calf liver RNA): 2.24 | Fluorescence Intensity Bound to RNA (calf liver RNA): 656.06

Cc1ccc2c(c1)sc(/C=C/C=C1\C=CN(CCO)c3ccccc31)[n+]2CCO [ReticRed6]
Fluorescence enhancement ratio (Bound/Unbound) (calf liver RNA): 225.164 | Fluorescence Intensity Unbound to RNA (calf liver RNA): 2.75 | Fluorescence Intensity Bound to RNA (calf liver RNA): 619.2
